The test system of the assay is primary neurones isolated from rat striatum expressing mutated huntingtin. Put plainly: Protection of striatum neurones in a death test induced by over-expression of a mutated form of huntingtin, GFP as reporter gene. Format: cell-based. To be noted: survival of GFP-positive cells minus DMSO, relative to BDNF (5 ng/ml) minus DMSO, active when ratio larger than 0.2. The procedure:
Evaluation of the Protection Provided by the Compound of Formula I on Striatum Neurones in a Death Test Induced by Over-Expression of a Mutated Form of Huntingtine by Using GFP as Reporter Gene
Primary cultures of striatum neurones are prepared as described in the literature (Mao L. et al., Methods Mol. Med., 2003, 79: 379-86).
Before sowing, an expression vector containing a promoter element followed by the DNA coding for a truncated form of huntingtin which comprises the first 480 amino acids and 68 CAG codons (Saudou et al., Cell, 1998, 95:55-66), purified beforehand, is introduced by electroporation according to the procedure described by Raoul et al., (Neuron, 2002, 35:1067-83).
A second expression vector, also purified beforehand, containing DNA coding for the green fluorescent protein (GFP) (Columbia University) is also electroporated and is used as a reporter gene.
The cells which survive electroporation are sown at a density of 4,000 cells per well on 96-well plates. The culture is achieved in 175 μl of Neurobasal medium (GIBCO) complemented with final 1 mM of pyruvate and with B-27 1/100 (Beckton Dickinson). The cells are maintained in the culture for 6 days without changing the medium.
[…] Positive controls are made by adding BDNF (Brain-Derived Neurotrophic Factor) at 5 ng/ml (Tebu) finally. The negative controls only receive 0.5% DMSO.
Cell death is evaluated after 7 days by counting the number of living cells expressing GFP.
The activity of the compounds to be tested was evaluated by their capability of preventing death of striatum neurones grown in the Neurobasal medium, as compared with survival of striatum neurones in a medium supplemented with BDNF.
The results are expressed as a ratio evaluating survival of positive GFP cells in the presence of the compound to be tested. This is therefore the number of living cells after treatment with the compound to be tested, reduced by the number of living cells after treatment with DMSO, based on (divided by) the number of survival cells after treatment with BDNF, reduced by the number of living cells after treatment with DMSO.
This ratio therefore represents the survival percentage due to the tested compound relatively to survival induced by BDNF.
In this test, a compound is considered as being active when said ratio is larger than 0.2 i.e. when it has a neuroprotective activity at least equal to 20% of the neuroprotective activity of BDNF.

In US8691854B2, “Chemical compounds and the uses thereof as a medicine” (Trophos, priority 2005, dated 2014) one finds GFP ratio data, which are given here for 22 compounds.

As to `N#Cc1cccc(C=CC=NNc2nc(-c3cccc(O)c3)cs2)c1` [Example 19], under “3 μM compound”, the GFP ratio is reported as more than 0.2.

Take `Nc1cccc(C=CC=NNc2nc(-c3ccc(C(F)(F)F)cc3)cs2)c1` [Example 17]: the GFP ratio (1 μM compound) is more than 0.2.

For “3-(3-nitrophenyl)-2-propenal-[4-(4-chlorophenyl-2-thiazolyl)hydrazone [Example 2]”, the GFP ratio (3 μM compound) is reported as more than 0.2.

On to `CS(=O)(=O)c1cccc(C=CC=NNc2nc(-c3ccc(C(F)(F)F)cc3)cs2)c1` [Example 24], for which the GFP ratio (0.3 μM compound) was more than 0.2.

For `N#Cc1cccc(C=CC=NNc2nc(-c3ccc(C(F)(F)F)cc3)cs2)c1` [Example 11], the GFP ratio (1 μM compound) is more than 0.2.

Turning to `Fc1ccc(C=CC=NNc2nc(-c3ccc(C(F)(F)F)cc3)cs2)cc1` [Example 29], the GFP ratio (3 μM compound) is listed as more than 0.2.

As for `Oc1cccc(-c2csc(NN=CC=Cc3ccccc3)n2)c1` [Example 7], the GFP ratio (3 μM compound) is more than 0.2.

As to `FC(F)(F)c1ccc(-c2csc(NN=CC=Cc3ccc4c(c3)OCO4)n2)cc1` [Example 21], under “1 μM compound”, the GFP ratio is recorded as more than 0.2.

On to `COc1cc(Cl)ccc1-c1csc(NN=CC=Cc2ccccc2)n1` [Example 22], for which the GFP ratio (3 μM compound) is listed as more than 0.2.

Turning to `N#Cc1cccc(C=CC=NNc2nc(-c3ccc(Cl)cc3)cs2)c1` [Example 10], under “1 μM compound”, the GFP ratio is on record as more than 0.2.

Take “3-(2-chlorophenyl)-2-propenal-[4-(4-chlorophenyl-2-thiazolyl)hydrazone [Example 12]”: for the setting “10 μM compound”, the GFP ratio was more than 0.2.

As to `Cc1ccccc1C=CC=NNc1nc(-c2ccc(Cl)cc2)cs1` [Example 9], where the note is “3 μM compound”, the GFP ratio is reported as more than 0.2.

As to `COc1cccc(C=CC=NNc2nc(-c3ccc(Cl)cc3)cs2)c1` [Example 6], the GFP ratio (10 μM compound) is on record as more than 0.2.

As to `Clc1ccc(-c2csc(NN=CC=Cc3ccncc3)n2)cc1` [Example 8], where the note is “10 μM compound”, the GFP ratio was more than 0.2.

On to `COc1ccccc1C=CC=NNc1nc(-c2ccc(Cl)cc2)cs1` [Example 3], for which the GFP ratio (3 μM compound) is more than 0.2.

With `FC(F)(F)c1ccc(-c2csc(NN=CC=Cc3ccncc3)n2)cc1` [Example 16], the GFP ratio (3 μM compound) is on record as more than 0.2.

Take `FC(F)(F)c1ccc(-c2csc(NN=CC=Cc3ccccn3)n2)cc1` [Example 26]: the GFP ratio (0.3 μM compound) was more than 0.2.

Take `Clc1ccc(-c2csc(NN=CC=Cc3ccccn3)n2)cc1` [Example 25]: for the setting “1 μM compound”, the GFP ratio is on record as more than 0.2.

For `Fc1ccccc1C=CC=NNc1nc(-c2ccc(Cl)cc2)cs1` [Example 1], the GFP ratio (1 μM compound) is listed as more than 0.2.

As for `Nc1cccc(C=CC=NNc2nc(-c3ccc(Cl)cc3)cs2)c1` [Example 14], for the setting “1 μM compound”, the GFP ratio is more than 0.2.

As for `O=[N+]([O-])c1cccc(C=CC=NNc2nc(-c3ccc(C(F)(F)F)cc3)cs2)c1` [Example 13], under “1 μM compound”, the GFP ratio is given as more than 0.2.

Consider `CS(=O)(=O)c1cccc(C=CC=NNc2nc(-c3ccc(Cl)cc3)cs2)c1` [Example 18], for which, for the setting “1 μM compound”, the GFP ratio is recorded as more than 0.2.
